# Measurements as given in patent US11000533B2, “Connective tissue monitoring, compositions for connective tissue treatment and methods for treating connective tissue” (priority 2011, dated 2021).
# Several values for one entry are separate records, joined by “and”; a condition that tells them apart may be missing. Identical values can stand only once.
# Columns and labels:
# [1] = test system: acute tendon injury; experiment: Time until positive clinical response (disappearance of swelling, heat and pain on palpation) after medication institution; type: in vivo, horse; conditions: for Time until Clinical Response: acute tendon injury
# Protocol: An acute tendon injury in a horse, is also known as a “Bowed Tendon”. This injury is clinically characterized by visible swelling of the tendon, heat to touch, as well as pain on palpation of the tendon. Clinical improvement of such a tendon injury is manifest by the diminution and ultimate absence of any swelling, heat and pain on palpation. The trials detailed above were carried out using the “polypaste” (multiple medications) approach to tendon injury in horses using “Tendon Guard Intense”. Three medications were used in initial tendon injury treatment: a proinflammatory cytokine inhibitor (Doxycycline 5 gm BD), an antioxidant or catechin (Green Tea extract/EGCG 5 gm BD) and an anti-inflammatory (Ibuprofen 5 gm BD). Throughout the testing process, a cohort of horses, were unable to take all of the individual ingredients planned, due to a number of reasons: The individual medication contraindications outlined, led to a cohort of horses in initial testing who consequently only received a single drug or a combination of two drugs (not three) to treat their acute tendon injury. These horses received either: All horses were carefully examined daily following acute injury and after institution of medication, by either an experienced veterinarian or trainer, for the presence of all of swelling, heat and pain on palpation of the tendon. A positive clinical response to treatment was defined as the absence of all three of swelling, heat and pain on palpation. The time from medication institution until disappearance of all three signs of swelling, heat and pain on palpation was recorded, as this was deemed the ultimate marker of clinical improvement of the tendon injury. Horses were immediately put back into light exercise once these acute signs had disappeared.
# [2] = test system: tendon injury; experiment: Additional studies with alternative combinations: resolution of pain and swelling; type: in vivo, horse; conditions: dose of 450 mg/day
# Protocol: Additional studies have been performed with alternative anti-inflammatories and alternative NSAIDs. It is desirable to avoid using ibuprofen. The reason is ibuprofen stores in tissue and causes positive drug tests in racing horses. Copper indomethacin (CuIndomethacin) has been used as the anti-inflammatory and/or NSAID.
# One of the advantages of CuIndomethacin is that it can be used in lower dosages. A dose of 200 mg (⅕ gram) has been used. It is hypothesized that a therapeutic effect may be achieved with 50 mg or ¼ of the usual dose or less by way of example.
# In some embodiments, it is desirable to avoid using Doxycycline. The reason for this is that there is a worldwide push not to use antibiotics for purposes which are not infection related. For this reason, in som embodiments, curcumin, which is also a proinflammatory cytokine inhibitor, has been used at a dose of 450 mg/day with great success.
structure (smiles),measurement,setting,value
"O=C(O[C@@H]1Cc2c(O)cc(O)cc2O[C@@H]1c1cc(O)c(O)c(O)c1)c1cc(O)c(O)c(O)c1 [EGCG, epigallocatechin gallate]",Time until Clinical Response,"[1]; individual horses (5), EGCG alone 5 gms BD",24 days and 21 days (2×) and 28 days and 31 days
same,Mean time until a positive clinical response to treatment,"[1]; mean of 5 horses, EGCG alone 5 gms BD",(25 days)
CC(C)Cc1ccc(C(C)C(=O)O)cc1 (stereo not shown) [Ibuprofen],Time until Clinical Response,"[1]; individual horses (8), Ibuprofen alone 5 gm BD",20 days and 25 days and 19 days (2×) and 18 days and 23 days and 27 days and 24 days
same,Mean time until a positive clinical response to treatment,"[1]; mean of 8 horses, Ibuprofen alone 5 gm BD",(21.9 days)
COc1cc(/C=C/C(=O)CC(=O)/C=C/c2ccc(O)c(OC)c2)ccc1O [curcumin],Outcome of use as proinflammatory cytokine inhibitor in place of doxycycline,[2],great success
C[C@H]1c2cccc(O)c2C(=O)C2=C(O)[C@]3(O)C(=O)C(C(N)=O)=C(O)[C@@H](N(C)C)[C@@H]3[C@@H](O)[C@@H]21 [Doxycycline],Time until Clinical Response,"[1]; individual horses (6), Doxycycline alone 5 gms BD",27 days (2×) and 21 days (2×) and 24 days and 28 days
same,Mean time until a positive clinical response to treatment,"[1]; mean of 6 horses, Doxycycline alone 5 gms BD",(24.66 days)
